{
  "source": "patent US12091426B2",
  "about": "“Bifunctional degraders of hematopoietic progenitor kinase and therapeutic uses thereof” (Nurix Therapeutics, Inc., priority 2021, dated 2024)",
  "biological_target": "T1, HPK1 (Homo sapiens, UniProt Q92918)",
  "T1 construct": "A HiBiT tag was introduced by CRISPR on the N terminus of HPK1 in Jurkat cells; host or cells: Jurkat cells (ATCC TIB-152), monoclonal line with CRISPR knock-in of HiBiT at the endogenous HPK1 locus",
  "T1 sequence (Q92918 whole entry)": "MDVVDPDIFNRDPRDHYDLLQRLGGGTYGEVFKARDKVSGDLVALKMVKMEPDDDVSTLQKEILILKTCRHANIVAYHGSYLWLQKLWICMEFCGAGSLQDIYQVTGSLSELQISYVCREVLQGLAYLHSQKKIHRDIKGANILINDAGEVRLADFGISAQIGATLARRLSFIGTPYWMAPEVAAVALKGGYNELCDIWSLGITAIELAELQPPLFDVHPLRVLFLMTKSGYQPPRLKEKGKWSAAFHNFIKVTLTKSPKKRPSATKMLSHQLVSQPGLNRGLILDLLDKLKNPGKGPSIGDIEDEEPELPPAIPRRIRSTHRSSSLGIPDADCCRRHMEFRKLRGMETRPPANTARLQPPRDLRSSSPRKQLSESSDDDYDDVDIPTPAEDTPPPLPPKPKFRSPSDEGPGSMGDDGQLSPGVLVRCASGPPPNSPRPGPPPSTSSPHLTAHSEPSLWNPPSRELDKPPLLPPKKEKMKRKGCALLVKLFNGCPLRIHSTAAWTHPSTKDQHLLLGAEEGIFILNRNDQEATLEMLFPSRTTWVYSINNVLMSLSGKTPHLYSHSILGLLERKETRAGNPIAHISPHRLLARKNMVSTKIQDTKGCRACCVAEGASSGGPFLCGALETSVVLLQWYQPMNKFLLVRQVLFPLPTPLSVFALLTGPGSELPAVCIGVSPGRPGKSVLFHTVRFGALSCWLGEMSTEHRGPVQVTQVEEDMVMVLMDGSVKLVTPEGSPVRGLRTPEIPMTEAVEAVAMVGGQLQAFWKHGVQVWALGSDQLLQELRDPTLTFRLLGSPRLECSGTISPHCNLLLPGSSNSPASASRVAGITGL",
  "test": "HPK1 Cellular HiBit Degradation Assay",
  "type": "cell-based",
  "settings": "HiBiT HPK1 Jurkat cells, 24 hrs",
  "method_in_brief": "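Jurkat cells with CRISPR N-terminal HiBiT-tagged endogenous HPK1 treated 24 h at 37 °C with 11-point, 3.16-fold dilutions (10 uM to 0.1 nM final). HiBiT lytic luminescence gives % HPK1 remaining versus DMSO, with parental cells as background. Four-parameter fit yields DC50; Dmax = 100 minus lowest % remaining.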",
  "data": [
    {"smiles": "CC(C)n1cnc2cc(-c3ccc4c(c3)N([C@H]3C[C@@H](N5C6COCC5C6)C3)C(=O)C43CCN(C(=O)C4(C)CCN(C(=O)C5CCN(c6ccc(C7CCC(=O)NC7=O)cc6)CC5)CC4)CC3)nc(NC3CC3)c21", "note": "(mixture of isomers) [Example 195, (3RS)-3-(4-{4-[4-({6-[4-(cyclopropylamino)-3-(propan-2-yl)-3H-imidazo[4,5-c]pyridin-6-yl]-2-oxo-1-[(1S,3S)-3-{3-oxa-6-Azabicyclo[3.1.1]heptan-6-yl}cyclobutyl]-1,2-dihydrospiro[indole-3,4′-piperidin]-1′-yl}carbonyl)-4-methylpiperidine-1-carbonyl]piperidin-1-yl}phenyl)piperidine-2,6-dione]", "values": [
      {"measurement": "DC50", "setting": "concentration at which 50% of HPK1 was remaining, read-out: DC50 Category", "value": "0.5 to 1", "unit": "µM"},
      {"measurement": "Dmax", "setting": "Jurkat, maximum degradation vs DMSO vehicle control, read-out: Dmax Category", "value": "50 to 70", "unit": "%"}
    ]}
  ]
}
